Several values for one entry are separate records, joined by “and”; a condition that tells them apart may be missing. Equal values may be shown once. Where a SMILES comes first, the peptide text is derived from it. Bridges are numbered along the chain shown (N, C = ends). [ ]: non-standard residue; d: D form.
Assays:
growth hormone (GH) = test: Suppression of growth hormone (duration of activity after sc injection); format: in vivo, rats; conditions: 1000 μg/kg. sc, rats
Procedure: A subcutaneous (sc) injection of peptide solubilized or suspended in physiological saline, is given to Charles River CD® nonfasted male rats. Matched saline control solution sc injected rats serve as control animals so that every experimental rat is paired with a control rat. The rats are kept in separate cages and 20 minutes before the end of the test time period they are given an intraperitoneal (i.p.) injection of Nembutal® at a dose of 50 mg/kg. Blood samples are obtained by cardiac puncture and the plasma separated for the radioimmunoassay of growth hormone (GH) concentration (ng/ml.). Time periods after injection of 2, 4, 5, and 6 hours are generally used to test the duration of the activity of the peptide to suppress circulating peripheral GH levels. Comparisons between control and experimental GH values at each time are evaluated by the Student "t" test and statistical significance (p) at the 0.05 level or lower is used as the index of activity.

growth hormone = test: Suppression of growth hormone, glucagon and insulin (arginine-stimulated, nembutal rats): GH; format: in vivo; conditions: 10 μg/kg. s.c., arginine challenge (table 5)
Procedure: (§1) Albino male rats are arranged in three groups (nine rats/group) and injected i.p. with nembutal at 50mg/kg. 15 minutes after the nembutal injection they are injected s.c. according to group with (a) test compound, typically 10-2000 μg/kg.; (b) SRIF 200 μg/kg.; or (c) physiological saline. 10 minutes later 0.5 ml. of arginine (300 mg/ml., pH 7.2) is injected into the heart. The rats are decapitated 5 minutes after receiving the arginine, and the blood is collected into Trasylol-EDTA. Appropriate aliquots are then assayed for growth hormone, glucagon and insulin. […] Comparisons between control and experimental values are statistically evaluated by the analysis of variants method and statistical significance (p) at 0.05 or lower is used as the index of activity.

insulin = test: Suppression of growth hormone, glucagon and insulin (arginine-stimulated, nembutal rats): insulin; format: in vivo; conditions: arginine challenge
Procedure: as §1

glucagon = test: Suppression of growth hormone, glucagon and insulin (arginine-stimulated, nembutal rats): glucagon; format: in vivo; conditions: 10 μg/kg. s.c., arginine challenge
Procedure: as §1

C[C@@H](O)[C@@H]1NC(=O)[C@H](Cc2ccccc2)NC(=O)[C@H]([C@@H](C)O)NC(=O)[C@H](CCCCN)NC(=O)[C@@H](Cc2c[nH]c3ccccc23)NC(=O)[C@H](Cc2ccccc2)NC(=O)[C@H](Cc2ccccc2)NC(=O)[C@@H](Cc2ccc(O)cc2)NC(=O)[C@@H](Cc2c[nH]cn2)NC(=O)[C@@H](N)CSSC[C@@H](C(=O)O)NC(=O)[C@H](CO)NC1=O [C, L-Cysteinyl-D-Histidyl-D-Tyrosyl-L-Phenylalanyl-L-Phenylalanyl-D-Tryptophyl-L-Lysyl-L-Threonyl-L-Phenylalanyl-L-Threonyl-L-Seryl-L-Cysteine Cyclic (1-12)-Disulfide] (H-C[dH][dY]FF[dW]KTFTSC-OH; disulfide 1-12)
GH, 2 Hours (growth hormone (GH); 2 hours): 34 ± 1 ng/mL | GH, 4 Hours (growth hormone (GH); 4 hours): 33 ± 2 ng/mL | GH, 5 Hours (growth hormone (GH); 5 hours): 51 ± 8 ng/mL | GH, 6 Hours (growth hormone (GH); 6 hours): 36 ± 3 ng/mL | GH, 7 Hours (growth hormone (GH); 7 hours): 37 ± 5 ng/mL | GH, 8 Hours (growth hormone (GH); 8 hours): 37 ± 6 ng/mL | GH (growth hormone): 149 ± 23 | Insulin (insulin; 10 μg/kg. s.c.): 252 ± 41 μU/ml. | Insulin (insulin; 200 μg/kg. s.c.): 254 ± 31 μU/ml. and 273 ± 36 μU/ml. | Glucagon (glucagon): 165 ± 13 pg/mL
